Assay results from US12274751B2, “Composition and method of the use of colchicine oral liquid” (priority 2016, dated 2025).

How the values were obtained:
[1] = Stability of colchicine solution, colchicine assay (% label claim); format: physicochemical; conditions: API (colchicine drug substance), calculated on the anhydrous, solvent-free basis
Method: The colchicine solution is formulated and assayed for colchicine levels. Stability of the claimed formulation was tested at room temperature, 30° C., and 40° C. and assayed for the colchicine. […] The fact that the oral solution was so stable after 6 months at an accelerated temperature (40 degrees Celsius, which corresponds to 24 months at room temperature) was quite surprising. Solutions of colchicine for oral administration to humans have not been developed because they were believed to be too unstable. The data presented herein show for the first time that an oral colchicine solution can remain stable with minimal degradants and thus have a long shelf life consistent with commercial formulations.
The colchicine solution in Table 4 was packaged in a 190 mL HDPE bottle and assayed by HPLC cUSP.
The label claim of the liquid solution is 0.12 mg/ml and the assay results of the active ingredient are reported as percent of label claim. For instance, the label claim of an exemplary colchicine solution of the invention is 0.12 mg/ml. The FDA requirement for stability results for drugs is 90-110% label claim.

[2] = in the presence of glycerin; Habib et al. 1989; cited from earlier work
[3] = in vitro; conditions: human, Caco-2
Method: To verify the Caco-2 cell monolayers were properly formed, aliquots of the cell buffers were analyzed by fluorescence to determine the transport of the impermeable dye Lucifer Yellow.

| Compound | Stability Results (% Label Claim) [1] [% Label Claim] | loss by photodegradation in solution [2] [%] | Papp A→B [3] [×10⁻⁶ cm/s] | Papp B→A [3] [×10⁻⁶ cm/s] |
| --- | --- | --- | --- | --- |
| COc1cc2c(c(OC)c1OC)-c1ccc(OC)c(=O)cc1[C@@H](NC(C)=O)CC2 [Colchicine, (−)-N-[(7S,12aS)-1,2,3,10-tetramethoxy-9-oxo-5,6,7,9-tetrahydrobenzo[a]heptalen-7-yl]-acetamide] | 91.8 | ≤ 50 |  |  |
| COCCc1ccc(OCC(O)CNC(C)C)cc1 (centres unmarked) [metoprolol] |  |  | 13.7 | 27.2 |
| CNC(=C[N+](=O)[O-])NCCSCc1ccc(CN(C)C)o1 [ranitidine] |  |  | 0.27 |  |
